According to US20210198204A1, “PRODRUGS OF KALLIKREIN INHIBITORS” (BioCryst Pharmaceuticals, Inc., priority 2016, published 2021):

Assay: Plasma pharmacokinetics of the parent compound after a single oral dose of prodrug
Assay type: in vivo
Settings: single oral dose 10 mg/kg, fasted male Sprague Dawley rats; plasma analyzed for the parent compound; study duration 8 h
Summary of the method: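 Three male Sprague Dawley rats, housed in metabolic cages and fasted about 15 hours, were weighed and received one oral gavage dose of 10 mg/kg as a solution in water or water/propylene glycol. Blood (approximately 500 μL) went into heparin tubes at set timepoints up to the study duration. Plasma was separated by centrifugation at 14,000 rpm for 3 min at 4° C, stored below −70° C, and assayed for the parent compound.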

AUC0-last hour (area under the curve) | Compound
B (B = 1,001-10,000 ng/mL) | C=Cc1cc(C(=O)Nc2ccc(C(=N)NC(=O)OCOC(=O)[C@@H](N)C(C)C)cc2)c(-c2ccc(C(=O)NCC3CC3)nc2C(=O)OCOC(=O)[C@@H](N)C(C)C)cc1OC [Compound 74e, (((S)-2-amino-3-methylbutanoyl)oxy)methyl 3-(2-((4-(N—(((((S)-2-amino-3-methylbutanoyl)oxy)methoxy)carbonyl)carbamimidoyl)phenyl)carbamoyl)-5-methoxy-4-vinylphenyl)-6-((cyclopropylmethyl)carbamoyl)picolinate]
B (B = 1,001-10,000 ng/mL) | C=Cc1cc(C(=O)Nc2ccc(C(=N)NC(=O)OCCN3CCOCC3)cc2)c(-c2ccc(C(=O)NCC3CC3)nc2C(=O)OC(C)OC(=O)C(C)C)cc1OC (stereo not shown) [Compound 75c, 1-(isobutyryloxy)ethyl 6-((cyclopropylmethyl)carbamoyl)-3-(5-methoxy-2-((4-(N-((2-morpholinoethoxy)carbonyl)carbamimidoyl)phenyl)carbamoyl)-4-vinylphenyl)picolinate]
B (B = 1,001-10,000 ng/mL) | C=Cc1cc(C(=O)Nc2ccc(C(=N)NC(=O)OCC3COC(C)(C)O3)cc2)c(-c2ccc(C(=O)NCC3CC3)nc2C(=O)OC(C)OC(=O)OC(C)C)cc1OC (stereo not shown) [Compound 77c, 1-((isopropoxycarbonyl)oxy)ethyl 6-((cyclopropylmethyl)carbamoyl)-3-(2-((4-(N-(((2,2-dimethyl-1,3-dioxolan-4-yl)methoxy)carbonyl)carbamimidoyl)phenyl)carbamoyl)-5-methoxy-4-vinylphenyl)picolinate]
C (C >10,000 ng/mL) | C=Cc1cc(C(=O)Nc2ccc(C(=N)NC(=O)OCCOCC)cc2)c(-c2ccc(C(=O)NCC3CC3)nc2C(=O)OC(C)OC(=O)C(C)C)cc1OC (stereo not shown) [Compound 80c, 1-(isobutyryloxy)ethyl 6-((cyclopropylmethyl)carbamoyl)-3-(2-((4-(N-((2-ethoxyethoxy)carbonyl)carbamimidoyl)phenyl)carbamoyl)-5-methoxy-4-vinylphenyl)picolinate]
A (A = 0-1,000 ng/mL) | C=Cc1cc(C(=O)Nc2ccc(C(=N)NC(=O)OCCCCCC)cc2)c(-c2ccc(C(=O)NCC3CC3)nc2C(=O)OC(C)OC(=O)NC(C)C)cc1OC (stereo not shown) [Compound 81d, 1-((isopropylcarbamoyl)oxy)ethyl 6-((cyclopropylmethyl)carbamoyl)-3-(2-((4-(N-((hexyloxy)carbonyl)carbamimidoyl)phenyl)carbamoyl)-5-methoxy-4-vinylphenyl)picolinate]
B (B = 1,001-10,000 ng/mL) | C=Cc1cc(C(=O)Nc2ccc(C(=N)NC(=O)OCCOCCC)cc2)c(-c2ccc(C(=O)NCC3CC3)nc2C(=O)OC(C)OC(=O)OC(C)C)cc1OC (stereo not shown) [Compound 83c, 1-((isopropoxycarbonyl)oxy)ethyl 6-((cyclopropylmethyl)carbamoyl)-3-(5-methoxy-2-((4-(N-((2-propoxyethoxy)carbonyl)carbamimidoyl)phenyl)carbamoyl)-4-vinylphenyl)picolinate]
A (A = 0-1,000 ng/mL) | C=Cc1cc(C(=O)Nc2ccc(C(=N)NC(=O)OCC(O)CO)cc2)c(-c2ccc(C(=O)NCC3CC3)nc2C(=O)OC(C)OC(=O)OC(C)C)cc1OC (stereo not shown) [Compound 84a, 1-((isopropoxycarbonyl)oxy)ethyl 6-((cyclopropylmethyl)carbamoyl)-3-(2-((4-(N-((2,3-dihydroxypropoxy)carbonyl)carbamimidoyl)phenyl)carbamoyl)-5-methoxy-4-vinylphenyl)picolinate]
A (A = 0-1,000 ng/mL) | C=Cc1cc(C(=O)Nc2ccc(C(=N)NC(=O)OCCO)cc2)c(-c2ccc(C(=O)NCC3CC3)nc2C(=O)OC(C)OC(=O)C(C)C)cc1OC (stereo not shown) [Compound 85d, 1-(isobutyryloxy)ethyl 6-((cyclopropylmethyl)carbamoyl)-3-(2-((4-(N-((2-hydroxyethoxy)carbonyl)carbamimidoyl)phenyl)carbamoyl)-5-methoxy-4-vinylphenyl)picolinate]
B (B = 1,001-10,000 ng/mL) | C=Cc1cc(C(=O)Nc2ccc(C(=N)NC(=O)OCCCCCC)cc2)c(-c2ccc(C(=O)NCC3CC3)nc2C(=O)OC(C)OC(=O)OCC2COC(C)(C)O2)cc1OC (stereo not shown) [Compound 87a, 1-((((2,2-dimethyl-1,3-dioxolan-4-yl)methoxy)carbonyl)oxy)ethyl 6-((cyclopropylmethyl)carbamoyl)-3-(2-((4-(N-((hexyloxy)carbonyl)carbamimidoyl)phenyl)carbamoyl)-5-methoxy-4-vinylphenyl)picolinate]
A (A = 0-1,000 ng/mL) | C=Cc1cc(C(=O)Nc2ccc(C(=N)NC(=O)OCCCCCC)cc2)c(-c2ccc(C(=O)NCC3CC3)nc2C(=O)OC(C)OC(=O)N(C)C)cc1OC (stereo not shown) [Compound 90d, 1-((dimethylcarbamoyl)oxy)ethyl 6-((cyclopropylmethyl)carbamoyl)-3-(2-((4-(N-((hexyloxy)carbonyl)carbamimidoyl)phenyl)carbamoyl)-5-methoxy-4-vinylphenyl)picolinate]
A (A = 0-1,000 ng/mL) | C=Cc1cc(C(=O)Nc2ccc(C(=N)NC(=O)OCCCCCC)cc2)c(-c2ccc(C(=O)NCC3CC3)nc2C(=O)OC(C)OC(=O)N[C@H](C(=O)OCC)[C@@H](C)CC)cc1OC (stereo partly drawn) [Compound 91d, 1-((((2S,3S)-1-ethoxy-3-methyl-1-oxopentan-2-yl)carbamoyl)oxy)ethyl 6-((cyclopropylmethyl)carbamoyl)-3-(2-((4-(N-((hexyloxy)carbonyl)carbamimidoyl)phenyl)carbamoyl)-5-methoxy-4-vinylphenyl)picolinate]
A (A = 0-1,000 ng/mL) | C=Cc1cc(C(=O)Nc2ccc(C(=N)NC(=O)OCCC[C@H](O)C(=O)O)cc2)c(-c2ccc(C(=O)NCC3CC3)nc2C(=O)OC(C)OC(=O)C(C)C)cc1OC (stereo partly drawn) [Compound 92a, (2S)-5-((((4-(2-(6-((cyclopropylmethyl)carbamoyl)-2-((1-(isobutyryloxy)ethoxy)carbonyl)pyridin-3-yl)-4-methoxy-5-vinylbenzamido)phenyl)(imino)methyl)carbamoyl)oxy)-2-hydroxypentanoic acid]
B (B = 1,001-10,000 ng/mL) | C=Cc1cc(C(=O)Nc2ccc(C(=N)NC(=O)OCCCCCO)cc2)c(-c2ccc(C(=O)NCC3CC3)nc2C(=O)OC(C)OC(=O)C(C)C)cc1OC (stereo not shown) [Compound 94e, 1-(isobutyryloxy)ethyl 6-((cyclopropylmethyl)carbamoyl)-3-(2-((4-(N-(((5-hydroxypentyl)oxy)carbonyl)carbamimidoyl)phenyl)carbamoyl)-5-methoxy-4-vinylphenyl)picolinate]
B (B = 1,001-10,000 ng/mL) | C=Cc1cc(C(=O)Nc2ccc(C(=N)NC(=O)OC(C)CO)cc2)c(-c2ccc(C(=O)NCC3CC3)nc2C(=O)OC(C)OC(=O)OC(C)C)cc1OC (stereo not shown) [Compound 95e, 1-((isopropoxycarbonyl)oxy)ethyl 6-((cyclopropylmethyl)carbamoyl)-3-(2-((4-(N-(((1-hydroxypropan-2-yl)oxy)carbonyl)carbamimidoyl)phenyl)carbamoyl)-5-methoxy-4-vinylphenyl)picolinate]
A (A = 0-1,000 ng/mL) | C=Cc1cc(C(=O)Nc2ccc(C(=N)NC(=O)OCCN3CCOCC3)cc2)c(-c2ccc(C(=O)NCC3CC3)nc2C(=O)OC(C)OC(=O)[C@@H](N)C(C)C)cc1OC (stereo partly drawn) [Compound 96d, 1-(((S)-2-amino-3-methylbutanoyl)oxy)ethyl 6-((cyclopropylmethyl)carbamoyl)-3-(5-methoxy-2-((4-(N-((2-morpholinoethoxy)carbonyl)carbamimidoyl)phenyl)carbamoyl)-4-vinylphenyl)picolinate]
A (A = 0-1,000 ng/mL) | C=Cc1cc(C(=O)Nc2ccc(C(=N)NC(=O)OC(C)CN)cc2)c(-c2ccc(C(=O)NCC3CC3)nc2C(=O)OC(C)OC(=O)OC(C)C)cc1OC (stereo not shown) [Compound 97e, 1-((isopropoxycarbonyl)oxy)ethyl 3-(2-((4-(N-(((1-aminopropan-2-yl)oxy)carbonyl)carbamimidoyl)phenyl)carbamoyl)-5-methoxy-4-vinylphenyl)-6-((cyclopropylmethyl)carbamoyl)picolinate]
A (A = 0-1,000 ng/mL) | C=Cc1cc(C(=O)Nc2ccc(C(=N)NC(=O)OC[C@H]3OC[C@H](O)[C@@H]3O)cc2)c(-c2ccc(C(=O)NCC3CC3)nc2C(=O)OC(C)OC(=O)C(C)C)cc1OC (stereo partly drawn) [Compound 98e, 1-(isobutyryloxy)ethyl 6-((cyclopropylmethyl)carbamoyl)-3-(2-((4-(N-((((2R,3S,4S)-3,4-dihydroxytetrahydrofuran-2-yl)methoxy)carbonyl)carbamimidoyl)phenyl)carbamoyl)-5-methoxy-4-vinylphenyl)picolinate]
A (A = 0-1,000 ng/mL) | C=Cc1cc(C(=O)Nc2ccc(C(=N)NC(=O)OC[C@H]3NC[C@H](O)[C@@H]3O)cc2)c(-c2ccc(C(=O)NCC3CC3)nc2C(=O)OC(C)OC(=O)OC(C)C)cc1OC (stereo partly drawn) [Compound 99e, 1-((isopropoxycarbonyl)oxy)ethyl 6-((cyclopropylmethyl)carbamoyl)-3-(2-((4-(N-((((2R,3R,4S)-3,4-dihydroxypyrrolidin-2-yl)methoxy)carbonyl)carbamimidoyl)phenyl)carbamoyl)-5-methoxy-4-vinylphenyl)picolinate]
B (B = 1,001-10,000 ng/mL) | C=Cc1cc(C(=O)Nc2ccc(C(=N)NC(=O)OCCCCCC)cc2)c(-c2ccc(C(=O)NCC3CC3)nc2C(=O)OC(C)OC(=O)OC(C)CO)cc1OC (stereo not shown) [Compound 100e, 1-((((1-hydroxypropan-2-yl)oxy)carbonyl)oxy)ethyl 6-((cyclopropylmethyl)carbamoyl)-3-(2-((4-(N-((hexyloxy)carbonyl)carbamimidoyl)phenyl)carbamoyl)-5-methoxy-4-vinylphenyl)picolinate]
